Source: patent US11236129B2, “IL-17A binding peptides and medical uses thereof” (Dompe' Farmaceutici S.P.A., priority 2018, dated 2022)
Residues, ends and D or L forms follow the SMILES beside them.

molecular target: IL-17RA/IL17RC dimerization induced by IL-17A (Homo sapiens, UniProt Q16552); assay: IL-17RA/IL17RC dimerization assay in response to IL-17A (PathHunter Cytokine Receptor Assay); assay type: cell-based; settings: IL-17A at EC80; read-out: IC50 in IL-17RA/IL7RC dimerization assay
Procedure: The peptides of Table 7 were tested for their ability to inhibit the binding of IL-17A to its receptor and the subsequent interaction of IL-17RA and IL17RC.
Interleukin receptor RA and RC dimerization assay (DiscoverX) was used to measure the interaction of the receptor chains IL-17RA and IL17RC upon activation by IL-17A in the absence or presence of the peptides of Table 7.
In the PathHunter® Cytokine Receptor Assay, one cytokine receptor chain is tagged with a small peptide epitope ProLink (PK) and the other chain is tagged with Enzyme Acceptor (EA). Ligand binding induces dimerization of the two receptors, facilitating complementation of PK and EA fragments. This interaction generates an active unit of b-galactosidase, which is detected using a chemiluminescent substrate. PathHunter cell lines were expanded from freezer stocks according to standard procedures. Cells were seeded in a total volume of 20 μL into white walled, 384-well microplates and incubated for the appropriate time prior to testing. For agonist activity inhibition, cells were incubated with sample to induce response. Intermediate dilution of sample stocks was performed to generate 5× sample in assay buffer. 5 μL of 5× sample was added to cells and incubated at 37° C. or room temperature for 60 minutes. Vehicle concentration was 1%. 5 μL of 6×EC80 agonist (IL-17A) in assay buffer was added to the cells and incubated at 37° C. for 6 to 16 hours depending on the assay. 1. […] For some assays, activity was detected using a high sensitivity detection reagent (PathHunter Flash Kit) to improve assay performance. In these assays, an equal volume of detection reagent (25 or 30 uL) was added to the wells, followed by a one hour incubation at room temperature. Microplates were read following signal generation with a PerkinElmer Envision™ instrument for chemiluminescent signal detection. Compound activity was analyzed using CBIS data analysis suite (ChemInnovation, CA). % Inhibition=100%×(1−(mean RLU of test sample−mean RLU of vehicle control)/(mean RLU of EC80 control−mean RLU of vehicle control)).

Chain of IL-17RA/IL17RC dimerization induced by IL-17A (Q16552 24-155): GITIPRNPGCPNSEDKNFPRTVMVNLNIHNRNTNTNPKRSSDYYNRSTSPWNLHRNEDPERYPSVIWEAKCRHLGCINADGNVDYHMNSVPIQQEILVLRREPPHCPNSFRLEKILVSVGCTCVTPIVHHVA

Row | Structure (SMILES) | IC50 [nM]
1 | CC[C@H](C)[C@H](NC(=O)[C@H](Cc1c[nH]c2ccccc12)NC(=O)[C@H](CCC(=O)O)NC(=O)[C@H](Cc1ccc(O)cc1)NC(=O)[C@H](CC(C)C)NC(=O)[C@H](CC(=O)O)NC(=O)[C@H](C)NC(=O)[C@@H]1CCCN1C(=O)[C@@H](NC(=O)[C@@H](NC(=O)[C@@H](NC(=O)[C@H](CCSC)NC(=O)[C@@H](NC(=O)[C@@H](C)O[C@H]1[C@H](O[C@@H]2O[C@H](CO)[C@@H](O)[C@H](O)[C@H]2NC(C)=O)[C@@H](CO)OC(O)[C@@H]1NC(C)=O)[C@@H](C)CC)C(C)C)[C@@H](C)O)[C@@H](C)CC)C(=O)N[C@@H](CCC(=O)O)C(=O)N[C@@H](CCC(=O)O)C(N)=O (some centres unmarked) [BIO-3] | < 1000
2 | CCCCCCCCCC(=O)N[C@H](C(=O)N[C@@H](CCSC)C(=O)N[C@H](C(=O)N[C@H](C(=O)N[C@H](C(=O)N1CCC[C@H]1C(=O)N[C@@H](C)C(=O)N[C@@H](CC(=O)O)C(=O)N[C@@H](CC(C)C)C(=O)N[C@@H](Cc1ccc(O)cc1)C(=O)N[C@@H](CCC(=O)O)C(=O)N[C@@H](Cc1c[nH]c2ccccc12)C(=O)N[C@H](C(=O)N[C@@H](CCC(=O)O)C(=O)N[C@@H](CCC(=O)O)C(N)=O)[C@@H](C)CC)[C@@H](C)CC)[C@@H](C)O)C(C)C)[C@@H](C)CC [BIO-4] | < 1000
3 | CC[C@H](C)[C@H](NC(=O)[C@@H](NC(=O)[C@@H](NC(=O)[C@H](Cc1c[nH]cn1)NC(=O)[C@@H](NC(C)=O)C(C)C)C(C)C)[C@@H](C)O)C(=O)N1CCC[C@H]1C(=O)N[C@@H](C)C(=O)N[C@@H](CC(N)=O)C(=O)N[C@@H](CC(C)C)C(=O)N[C@@H](Cc1c[nH]c2ccccc12)C(=O)N[C@@H](CCC(=O)O)C(=O)N[C@@H](Cc1c[nH]c2ccccc12)C(=O)N[C@H](C(=O)N[C@@H](CCCNC(=N)N)C(=O)N[C@@H](CCCNC(=N)N)C(N)=O)C(C)C [SEQ ID NO: 116] (Ac-VHVTIPANLWEWVRR-NH2) | < 500
4 | CC[C@H](C)[C@H](NC(=O)[C@@H](NC(=O)[C@@H](NC(=O)[C@H](Cc1c[nH]cn1)NC(=O)[C@@H](NC(C)=O)C(C)C)C(C)C)[C@@H](C)O)C(=O)N1CCC[C@H]1C(=O)N[C@@H](C)C(=O)N[C@@H](CC(=O)O)C(=O)N[C@@H](Cc1ccccc1)C(=O)N[C@@H](Cc1c[nH]c2ccccc12)C(=O)N[C@@H](CCC(=O)O)C(=O)N[C@@H](Cc1c[nH]c2ccccc12)C(=O)N[C@H](C(=O)N[C@@H](CCCNC(=N)N)C(=O)N[C@@H](CCCNC(=N)N)C(N)=O)C(C)C [SEQ ID NO: 117] (Ac-VHVTIPADFWEWVRR-NH2) | < 500
5 | CC[C@H](C)[C@H](NC(=O)[C@@H](NC(=O)[C@@H](NC(=O)[C@H](Cc1c[nH]cn1)NC(=O)[C@@H](NC(C)=O)C(C)C)C(C)C)[C@@H](C)O)C(=O)N1CCC[C@H]1C(=O)N[C@@H](C)C(=O)N[C@@H](CC(=O)O)C(=O)N[C@@H](CC(C)C)C(=O)N[C@@H](Cc1ccc(O)cc1)C(=O)N[C@@H](CCC(=O)O)C(=O)N[C@@H](Cc1c[nH]c2ccccc12)C(=O)N[C@H](C(=O)N[C@@H](CCCNC(=N)N)C(=O)N[C@@H](CCCNC(=N)N)C(N)=O)C(C)C [SEQ ID NO: 118] (Ac-VHVTIPADLYEWVRR-NH2) | < 500
6 | CC[C@H](C)[C@H](NC(=O)[C@@H](NC(=O)[C@@H](NC(=O)[C@H](Cc1c[nH]cn1)NC(=O)[C@@H](NC(C)=O)C(C)C)C(C)C)[C@@H](C)O)C(=O)N1CCC[C@H]1C(=O)N[C@@H](C)C(=O)N[C@@H](CC(=O)O)C(=O)N[C@@H](CC(C)C)C(=O)N[C@@H](Cc1c[nH]c2ccccc12)C(=O)N[C@@H](CC(N)=O)C(=O)N[C@@H](Cc1c[nH]c2ccccc12)C(=O)N[C@H](C(=O)N[C@@H](CCCNC(=N)N)C(=O)N[C@@H](CCCNC(=N)N)C(N)=O)C(C)C [SEQ ID NO: 119] (Ac-VHVTIPADLWNWVRR-NH2) | < 500
7 | CC[C@H](C)[C@H](NC(=O)[C@@H](NC(=O)[C@@H](NC(=O)[C@H](Cc1c[nH]cn1)NC(=O)[C@@H](NC(C)=O)C(C)C)C(C)C)[C@@H](C)O)C(=O)N1CCC[C@H]1C(=O)N[C@@H](C)C(=O)N[C@@H](CC(=O)O)C(=O)N[C@@H](CC(C)C)C(=O)N[C@@H](Cc1c[nH]c2ccccc12)C(=O)N[C@@H](CCC(=O)O)C(=O)N[C@@H](Cc1ccccc1)C(=O)N[C@H](C(=O)N[C@@H](CCCNC(=N)N)C(=O)N[C@@H](CCCNC(=N)N)C(N)=O)C(C)C [SEQ ID NO: 120] (Ac-VHVTIPADLWEFVRR-NH2) | < 500
8 | CC[C@H](C)[C@H](NC(=O)[C@H](Cc1ccc(O)cc1)NC(=O)[C@@H](NC(=O)[C@H](Cc1c[nH]cn1)NC(=O)[C@@H](NC(C)=O)C(C)C)C(C)C)C(=O)N1CCC[C@H]1C(=O)N[C@@H](C)C(=O)N[C@@H](CCC(=O)O)C(=O)N[C@@H](CC(C)C)C(=O)N[C@@H](Cc1c[nH]c2ccccc12)C(=O)N[C@@H](CCC(=O)O)C(=O)N[C@@H](Cc1c[nH]c2ccccc12)C(=O)N[C@H](C(=O)N[C@@H](CCCNC(=N)N)C(=O)N[C@@H](CCCNC(=N)N)C(N)=O)C(C)C [SEQ ID NO: 122] (Ac-VHVYIPAELWEWVRR-NH2) | < 500
9 | CC[C@H](C)[C@H](NC(=O)[C@@H](NC(=O)[C@@H](NC(=O)[C@H](Cc1c[nH]cn1)NC(=O)[C@@H](NC(C)=O)C(C)C)C(C)C)[C@@H](C)O)C(=O)N1CCC[C@H]1C(=O)N[C@@H](C)C(=O)N[C@@H](CCC(=O)O)C(=O)N[C@@H](Cc1c[nH]c2ccccc12)C(=O)N[C@@H](Cc1c[nH]c2ccccc12)C(=O)N[C@@H](CCC(=O)O)C(=O)N[C@@H](Cc1c[nH]c2ccccc12)C(=O)N[C@H](C(=O)N[C@@H](CCCNC(=N)N)C(=O)N[C@@H](CCCNC(=N)N)C(N)=O)C(C)C [SEQ ID NO: 123] (Ac-VHVTIPAEWWEWVRR-NH2) | < 500
10 | CC(=O)N[C@H](C(=O)N[C@@H](Cc1c[nH]cn1)C(=O)N[C@@H](Cc1ccccc1)C(=O)N[C@H](C(=O)N[C@@H](Cc1ccccc1)C(=O)N1CCC[C@H]1C(=O)N[C@@H](CCC(N)=O)C(=O)N[C@@H](CC(=O)O)C(=O)N[C@@H](CC(C)C)C(=O)N[C@@H](Cc1c[nH]c2ccccc12)C(=O)N[C@@H](CCC(=O)O)C(=O)N[C@@H](Cc1c[nH]c2ccccc12)C(=O)N[C@H](C(=O)N[C@@H](CCCNC(=N)N)C(=O)N[C@@H](CCCNC(=N)N)C(N)=O)C(C)C)[C@@H](C)O)C(C)C [SEQ ID NO: 124] (Ac-VHFTFPQDLWEWVRR-NH2) | < 500
11 | CC(=O)N[C@H](C(=O)N[C@@H](Cc1c[nH]cn1)C(=O)N[C@@H](Cc1ccccc1)C(=O)N[C@H](C(=O)N[C@@H](Cc1ccccc1)C(=O)N1CCC[C@H]1C(=O)N[C@@H](CCC(N)=O)C(=O)N[C@@H](CC(=O)O)C(=O)N[C@@H](Cc1ccccc1)C(=O)N[C@@H](Cc1c[nH]c2ccccc12)C(=O)N[C@@H](CCC(=O)O)C(=O)N[C@@H](Cc1c[nH]c2ccccc12)C(=O)N[C@H](C(=O)N[C@@H](CCCNC(=N)N)C(=O)N[C@@H](CCCNC(=N)N)C(N)=O)C(C)C)[C@@H](C)O)C(C)C [SEQ ID NO: 125] (Ac-VHFTFPQDFWEWVRR-NH2) | < 500
12 | CC[C@H](C)[C@H](NC(=O)[C@@H](NC(=O)[C@H](Cc1ccccc1)NC(=O)[C@H](Cc1c[nH]cn1)NC(=O)[C@@H](NC(C)=O)C(C)C)[C@@H](C)O)C(=O)N1CCC[C@H]1C(=O)N[C@@H](CCC(N)=O)C(=O)N[C@@H](CC(=O)O)C(=O)N[C@@H](CC(C)C)C(=O)N[C@@H](Cc1ccc(O)cc1)C(=O)N[C@@H](CCC(=O)O)C(=O)N[C@@H](Cc1c[nH]c2ccccc12)C(=O)N[C@H](C(=O)N[C@@H](CCCNC(=N)N)C(=O)N[C@@H](CCCNC(=N)N)C(N)=O)C(C)C [SEQ ID NO: 126] (Ac-VHFTIPQDLYEWVRR-NH2) | < 500
13 | CC(=O)N[C@H](C(=O)N[C@@H](Cc1c[nH]cn1)C(=O)N[C@@H](Cc1ccccc1)C(=O)N[C@H](C(=O)N[C@@H](Cc1ccccc1)C(=O)N1CCC[C@H]1C(=O)N[C@@H](CCC(N)=O)C(=O)N[C@@H](CC(=O)O)C(=O)N[C@@H](CC(C)C)C(=O)N[C@@H](Cc1c[nH]c2ccccc12)C(=O)N[C@@H](CC(N)=O)C(=O)N[C@@H](Cc1c[nH]c2ccccc12)C(=O)N[C@H](C(=O)N[C@@H](CCCNC(=N)N)C(=O)N[C@@H](CCCNC(=N)N)C(N)=O)C(C)C)[C@@H](C)O)C(C)C [SEQ ID NO: 127] (Ac-VHFTFPQDLWNWVRR-NH2) | < 500
14 | CC(=O)N[C@H](C(=O)N[C@@H](Cc1c[nH]cn1)C(=O)N[C@@H](Cc1ccccc1)C(=O)N[C@H](C(=O)N[C@@H](Cc1ccccc1)C(=O)N1CCC[C@H]1C(=O)N[C@@H](CCC(N)=O)C(=O)N[C@@H](CC(=O)O)C(=O)N[C@@H](CC(C)C)C(=O)N[C@@H](Cc1c[nH]c2ccccc12)C(=O)N[C@@H](CCC(=O)O)C(=O)N[C@@H](Cc1ccccc1)C(=O)N[C@H](C(=O)N[C@@H](CCCNC(=N)N)C(=O)N[C@@H](CCCNC(=N)N)C(N)=O)C(C)C)[C@@H](C)O)C(C)C [SEQ ID NO: 128] (Ac-VHFTFPQDLWEFVRR-NH2) | < 500
